The test concerns P388 leukemia ip, CD2F1 mice, survival T/C. As to the kind of experiment: NCI In Vivo Anticancer Drug Screen. Data for tumor model P388 Leukemia (intraperitoneal) in CD2F1 (CDF1) mice. To be noted: endpoint: median survival time, higher = longer survival. In a few lines:
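Mice carrying the transplanted tumor received test compound or vehicle. Survival was recorded in each group, and the value is the treated-group measurement divided by that of the vehicle-treated control group.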

Setting [1] is: dose: 50.0 mg/kg/injection, schedule: Q01DX005 (ip), vehicle: saline with Tween-80.
The mark [2] stands for this setting: dose: 100.0 mg/kg/injection, schedule: Q01DX005 (ip), vehicle: saline with Tween-80.
Setting [3] is: dose: 200.0 mg/kg/injection, schedule: Q01DX005 (ip), vehicle: saline with Tween-80.
Where [4] appears, read: dose: 60.0 mg/kg/injection, schedule: Q01DX005 (ip), vehicle: Klucel (hydroxypropylcellulose) (HPC).
Setting [5] is: dose: 120.0 mg/kg/injection, schedule: Q01DX005 (ip), vehicle: Klucel (hydroxypropylcellulose) (HPC).
The mark [6] stands for this setting: dose: 240.0 mg/kg/injection, schedule: Q01DX005 (ip), vehicle: Klucel (hydroxypropylcellulose) (HPC).
The mark [7] stands for this setting: dose: 60.0 mg/kg/injection, schedule: Q01DX005 (ip), vehicle: saline with Tween-80.
Setting [8] is: dose: 120.0 mg/kg/injection, schedule: Q01DX005 (ip), vehicle: saline with Tween-80.
Where [9] appears, read: dose: 240.0 mg/kg/injection, schedule: Q01DX005 (ip), vehicle: saline with Tween-80.
[10] abbreviates: dose: 100.0 mg/kg/injection, schedule: Q04DX002 (ip), vehicle: Klucel (hydroxypropylcellulose) (HPC).
Setting [11] is: dose: 200.0 mg/kg/injection, schedule: Q04DX002 (ip), vehicle: Klucel (hydroxypropylcellulose) (HPC).

Results on 21 molecules are retold here after PubChem BioAssay AID330 (DTP/NCI, 2004).

Values joined by “and” are separate entries in the source; they are usually repeats but may differ in a detail not shown here. Equal values may be shown once. Toxic doses and inconclusive results are not listed.

With `O=C1c2ccccc2CCC1Br` (stereo not given), the T/C reads like this: (dose: 1.56 mg/kg/injection, schedule: Q01DX009 (ip), vehicle: DMSO) 113 % of control; (dose: 6.25 mg/kg/injection, schedule: Q01DX009 (ip), vehicle: DMSO) 99 % of control and 103 % of control; (dose: 12.5 mg/kg/injection, schedule: Q01DX009 (ip), vehicle: DMSO) 102 % of control.
As to `CCOC(=O)C1=NCCS1`, the T/C by setting is: under setting [1], 98 % of control; under setting [2], 99 % of control; under setting [3], 99 % of control.
With `CCN(CC)CCSc1c2ccccc2nc2ccccc12`, the T/C (dose: 3.75 mg/kg/injection, schedule: Q01DX005 (ip), vehicle: saline with Tween-80) was 110 % of control; the T/C (dose: 7.5 mg/kg/injection, schedule: Q01DX005 (ip), vehicle: saline with Tween-80) was 114 % of control; the T/C (dose: 15.0 mg/kg/injection, schedule: Q01DX005 (ip), vehicle: saline with Tween-80) was 107 % of control.
With `CCc1cccc2c(NCCCCCCNc3c4ccccc4nc4c(CC)cccc34)c3ccccc3nc12`, the T/C (dose: 0.63 mg/kg/injection, schedule: Q01DX009 (ip), vehicle: other) is 113 % of control; the T/C (dose: 1.25 mg/kg/injection, schedule: Q01DX009 (ip), vehicle: other) is 109 % of control; the T/C (dose: 2.5 mg/kg/injection, schedule: Q01DX009 (ip), vehicle: other) is 112 % of control; the T/C (dose: 3.75 mg/kg/injection, schedule: Q01DX009 (ip), vehicle: other) is 105 % of control; the T/C (dose: 5.0 mg/kg/injection, schedule: Q01DX009 (ip), vehicle: other) was 110 % of control; the T/C (dose: 7.5 mg/kg/injection, schedule: Q01DX009 (ip), vehicle: other) was 114 % of control. For the same molecule, the T/C (dose: 15.0 mg/kg/injection, schedule: Q01DX009 (ip), vehicle: other) is 96 % of control.
Consider `CC1CC(C)N(C)C(C)C1` (stereo not given), for which the T/C is, setting by setting: (dose: 15.0 mg/kg/injection, schedule: Q01DX005 (ip), vehicle: saline) 103 % of control; (dose: 30.0 mg/kg/injection, schedule: Q01DX005 (ip), vehicle: saline) 99 % of control; (dose: 60.0 mg/kg/injection, schedule: Q01DX005 (ip), vehicle: saline) 104 % of control.
As for `COCN(C)N=Nc1ccc(C(=O)OC)cc1`, the T/C is, setting by setting: under setting [4], 107 % of control; under setting [5], 101 % of control; under setting [6], 87 % of control.
With `CCC[CH2][Sn]1([CH2]CCC)[O]C(=O)c2c(Cl)c(Cl)c(Cl)c(Cl)c2C(=O)[O]1`, the T/C is, setting by setting: (dose: 1.56 mg/kg/injection, schedule: Q01DX005 (ip), vehicle: saline with Tween-80) 110 % of control and 115 % of control; (dose: 3.13 mg/kg/injection, schedule: Q01DX005 (ip), vehicle: saline with Tween-80) 119 % of control and 120 % of control; (dose: 6.25 mg/kg/injection, schedule: Q01DX005 (ip), vehicle: saline with Tween-80) 119 % of control and 120 % of control.
On to `COC(=O)C(=O)C(C(=O)C(c1ccccc1)c1ccccc1)c1nc2n(c1O)/C(=N/C(=O)Nc1ccc(Cl)cc1)N=N2` (stereo not given), for which the T/C under setting [7] is 100 % of control, the T/C under setting [8] is 98 % of control and the T/C under setting [9] is 99 % of control.
For `NC(=O)Cc1nc(O)cs1`, the T/C under setting [4] is 102 % of control, the T/C under setting [5] was 101 % of control and the T/C under setting [6] is 109 % of control.
With `COc1cccc2c1C(=O)c1c(O)c3c(c(O)c1C2=O)CC(O)(/C(C)=N/NC(=O)CC(=O)N/N=C(\C)C1(O)Cc2c(O)c4c(c(O)c2C(OC2CC(N)C(O)C(C)O2)C1)C(=O)c1c(OC)cccc1C4=O)CC3OC1CC(N)C(O)C(C)O1` (stereo not given), the T/C is, setting by setting: (dose: 3.13 mg/kg/injection, schedule: Q01DX009 (ip), vehicle: water) 153 % of control; (dose: 3.13 mg/kg/injection, schedule: Q04DX003 (ip), vehicle: water) 101 % of control; (dose: 6.25 mg/kg/injection, schedule: Q01DX009 (ip), vehicle: water) 169 % of control; (dose: 6.25 mg/kg/injection, schedule: Q04DX003 (ip), vehicle: water) 110 % of control; (dose: 12.5 mg/kg/injection, schedule: Q04DX003 (ip), vehicle: water) 112 % of control.
Take `CCCCCCCCCCCC[N+]1(CC)CCCCC1`: the T/C is, setting by setting: (dose: 0.39 mg/kg/injection, schedule: Q01DX009 (ip), vehicle: saline) 108 % of control; (dose: 0.78 mg/kg/injection, schedule: Q01DX009 (ip), vehicle: saline) 109 % of control; (dose: 1.56 mg/kg/injection, schedule: Q01DX009 (ip), vehicle: saline) 118 % of control.
Take `CC1(C)CC(O)(C(Cl)c2ccccc2)C(=O)c2ccccc21` (stereo not given): the T/C was 96 % of control (dose: 25.0 mg/kg/injection, schedule: Q01DX009 (ip), vehicle: Klucel (hydroxypropylcellulose) (HPC)); 93 % of control (dose: 50.0 mg/kg/injection, schedule: Q01DX009 (ip), vehicle: Klucel (hydroxypropylcellulose) (HPC)); 93 % of control (dose: 100.0 mg/kg/injection, schedule: Q01DX009 (ip), vehicle: Klucel (hydroxypropylcellulose) (HPC)); 94 % of control (dose: 200.0 mg/kg/injection, schedule: Q01DX009 (ip), vehicle: Klucel (hydroxypropylcellulose) (HPC)); 86 % of control (dose: 400.0 mg/kg/injection, schedule: Q01DX009 (ip), vehicle: Klucel (hydroxypropylcellulose) (HPC)).
Regarding `CC1(C)OC(=O)NC1c1ccccc1` (stereo not given), the T/C (dose: 6.25 mg/kg/injection, schedule: Q01DX009 (ip), vehicle: saline with Tween-80) is 100 % of control; the T/C (dose: 12.5 mg/kg/injection, schedule: Q01DX009 (ip), vehicle: saline with Tween-80) is 99 % of control; the T/C (dose: 25.0 mg/kg/injection, schedule: Q01DX009 (ip), vehicle: saline with Tween-80) was 117 % of control.
With `CCN(CC)CCN1C(=O)c2cccc(N)c2C1=O`, the T/C was 103 % of control (dose: 50.0 mg/kg/injection, schedule: Q01DX005 (ip), vehicle: saline) and 101 % of control (dose: 100.0 mg/kg/injection, schedule: Q01DX005 (ip), vehicle: saline).
As for `CCn1c2ccc(C(=O)CCCN3CCCCC3)cc2c2cc(C(=O)CCCN3CCCCC3)ccc21`, the T/C by setting is: (dose: 6.25 mg/kg/injection, schedule: Q01DX009 (ip), vehicle: saline) 100 % of control; (dose: 12.5 mg/kg/injection, schedule: Q01DX009 (ip), vehicle: saline) 103 % of control and 113 % of control and 97 % of control; (dose: 25.0 mg/kg/injection, schedule: Q01DX009 (ip), vehicle: saline) 102 % of control and 121 % of control and 122 % of control.
Turning to `Cc1ccc(N2C(=O)CC3(CCCC3)C2=O)cc1[N+](=O)[O-]`, the T/C by setting is: under setting [10], 106 % of control; under setting [11], 105 % of control; (dose: 400.0 mg/kg/injection, schedule: Q04DX002 (ip), vehicle: Klucel (hydroxypropylcellulose) (HPC)) 97 % of control.
Regarding `Nc1nnnn1/N=C/c1ccccc1`, the T/C by setting is: (dose: 50.0 mg/kg/injection, schedule: Q04DX002 (ip), vehicle: Klucel (hydroxypropylcellulose) (HPC)) 87 % of control; under setting [10], 101 % of control; under setting [11], 100 % of control.
For `CSc1nc(SC)c2cnn(Cc3ccccc3)c2n1`, the T/C was 96 % of control under setting [1], 95 % of control under setting [2] and 93 % of control under setting [3].
Take `Clc1cc(Cl)c2n[se]nc2n1`: the T/C (dose: 25.0 mg/kg/injection, schedule: Q04DX002 (ip), vehicle: saline) is 100 % of control; the T/C (dose: 50.0 mg/kg/injection, schedule: Q04DX002 (ip), vehicle: saline) was 106 % of control; the T/C (dose: 100.0 mg/kg/injection, schedule: Q04DX002 (ip), vehicle: saline) is 116 % of control and 123 % of control.
Turning to `CCCCC(NC(=O)CCl)C(=O)O` (stereo not given), the T/C is 98 % of control (dose: 50.0 mg/kg/injection, schedule: Q01DX009 (ip), vehicle: saline); 95 % of control (dose: 100.0 mg/kg/injection, schedule: Q01DX009 (ip), vehicle: saline); 98 % of control (dose: 200.0 mg/kg/injection, schedule: Q01DX009 (ip), vehicle: saline).
With `CC(=O)Nc1ccc2c(C)cc(Cl)nc2c1`, the T/C reads like this: under setting [7], 95 % of control; under setting [8], 90 % of control; under setting [9], 89 % of control.
